Experimental data published in patent US11292781B2, “Pyrimidine tricyclic enone derivatives for inhibition of ROR-gamma and other uses” (REATA PHARMACEUTICALS, INC., priority 2016, dated 2022).

What follows are compounds tested on Nrf2 transcription factor (GST ARE luciferase reporter in AREc32 cells) (assay: AREc32 luciferase reporter assay). Settings: EC2×: concentration required to increase GST ARE luciferase reporter activity by 2-fold, 19 hours.
Format: cell-based, human
Text: A. AREc32 Luciferase Reporter Assay The AREc32 luciferase reporter assay allows for quantitative assessment of the endogenous activity of the Nrf2 transcription factor in cultured mammalian cells. AREc32 cells are derived from MCF-7 human breast carcinoma cells that were stably transfected with a reporter construct that contains the firefly luciferase gene located downstream of eight copies of the rat GSTA2 antioxidant response element (ARE) sequence (Wang et al., 2006; CXR Biosciences). Active NRF2 binds to the ARE sequences and increases expression of the firefly luciferase gene. […] Luciferase activity was determined using the ONE-Glo Luciferase assay (Promega). The luminescence signal was measured on a BMG Pherastar microplate reader. The mean luminescence value from test compound-treated wells was normalized to that from DMSO-treated wells and was represented as fold-induction. Data were analyzed using GraphPad Prism version 6.00 for Windows, GraphPad Software, La Jolla Calif. USA. A non-linear regression curve with log (agonist) vs. response using a variable slope was used to fit the data. […] EC2× values were interpolated from the curve.

SMILES	HRF2 ARE 2× [nM]
COc1nc(OC)c2c(n1)[C@]1(C)C=C(C#N)C(=O)[C@H](C)[C@H]1CC2 [T1]	487
COc1cc(-c2nc(OC)c3c(n2)[C@]2(C)C=C(C#N)C(=O)[C@H](C)[C@H]2CC3)ccn1 [T2]	247
COc1nc(-c2ccnc(C)c2)nc2c1CC[C@@H]1[C@@H](C)C(=O)C(C#N)=C[C@@]21C [T3]	232
COc1nc(-c2ccncc2C)nc2c1CC[C@@H]1[C@@H](C)C(=O)C(C#N)=C[C@@]21C [T4]	449
COc1nc(-c2ccncc2)nc2c1CC[C@@H]1[C@@H](C)C(=O)C(C#N)=C[C@@]21C [T5]	365
COc1nc(-c2ccnc(F)c2)nc2c1CC[C@@H]1[C@@H](C)C(=O)C(C#N)=C[C@@]21C [T6]	341
COc1nc(-c2cccnc2)nc2c1CC[C@@H]1[C@@H](C)C(=O)C(C#N)=C[C@@]21C [T7]	388
C[C@H]1C(O)=C(C#N)C[C@@]2(C)c3nc(-c4ccncc4)nc(-c4ccccc4)c3CC[C@H]12 [T13]	>2000
C[C@H]1C(=O)C(C#N)=C[C@@]2(C)c3nc(-c4ccncc4)nc(-c4ccccc4)c3CC[C@H]12 [T14]	281
C[C@H]1C(=O)[C@@]2(C#N)O[C@H]2[C@@]2(C)c3nc(-c4ccncc4)nc(-c4ccccc4)c3CC[C@H]12 [T15]	738
C[C@H]1C(=O)C(C(N)=O)=C[C@@]2(C)c3nc(-c4ccncc4)nc(-c4ccccc4)c3CC[C@H]12 [T16]	1000
Cc1ccc(S(=O)(=O)Oc2nc(-c3ccncc3)nc3c2CC[C@@H]2[C@@H](C)C(=O)C(C#N)=C[C@@]32C)cc1 [T18]	381
C[C@H]1C(=O)C(C#N)=C[C@@]2(C)c3nc(-c4ccccc4)nc(-c4ccccc4)c3CC[C@H]12 [T19]	741
C[C@H]1C(=O)C(C#N)=C[C@@]2(C)c3nc(-c4ccc(C(F)(F)F)cc4)nc(-c4ccccc4)c3CC[C@H]12 [T20]	608
C[C@H]1C(=O)C(C#N)=C[C@@]2(C)c3nc(-c4ccncc4)nc(-c4ccc(CO)cc4)c3CC[C@H]12 [T21]	443
C[C@H]1C(=O)C(C#N)=C[C@@]2(C)c3ncnc(-c4ccccc4)c3CC[C@H]12 [T22]	90
C[C@H]1C(=O)C(C#N)=C[C@@]2(C)c3nc(-c4ccncc4)nc(-c4ccc(C(F)(F)F)cc4)c3CC[C@H]12 [T24]	171
C[C@H]1C(=O)C(C#N)=C[C@@]2(C)c3nc(-c4ccncc4)nc(-c4cccnc4)c3CC[C@H]12 [T25]	449
C[C@H]1C(=O)C(C#N)=C[C@@]2(C)c3nc(-c4ccncc4)nc(-c4cccc(C(F)(F)F)c4)c3CC[C@H]12 [T26]	267
Cc1ccc(-c2nc(-c3ccncc3)nc3c2CC[C@@H]2[C@@H](C)C(=O)C(C#N)=C[C@@]32C)cc1 [T27]	181
C[C@H]1C(=O)C(C#N)=C[C@@]2(C)c3nc(-c4ccncc4)nc(-c4ccc(Cl)cc4)c3CC[C@H]12 [T28]	141
C[C@H]1C(=O)C(C#N)=C[C@@]2(C)c3nc(-c4ccncc4)nc(-c4ccncc4)c3CC[C@H]12 [T29]	484
COc1ccc(-c2nc(-c3ccncc3)nc3c2CC[C@@H]2[C@@H](C)C(=O)C(C#N)=C[C@@]32C)cc1 [T30]	136
C[C@H]1C(=O)C(C#N)=C[C@@]2(C)c3nc(-c4ccncc4)nc(-c4ccc(Cl)c(Cl)c4)c3CC[C@H]12 [T31]	186
C[C@H]1C(=O)C(C#N)=C[C@@]2(C)c3nc(N)nc(-c4ccccc4)c3CC[C@H]12 [T34]	469

SMILES	HRF2 ARE 2× [nM]
C[C@H]1C(=O)C(C#N)=C[C@@]2(C)c3nc(NC(=O)C4CCCCC4)nc(-c4ccccc4)c3CC[C@H]12 [T35]	575
C[C@H]1C(=O)C(C#N)=C[C@@]2(C)c3nc(-c4ccncc4)nc(Cc4ccccc4)c3CC[C@H]12 [T36]	484
C[C@H]1C(=O)C(C#N)=C[C@@]2(C)c3nc(-c4ccnc5ccccc45)nc(-c4ccccc4F)c3CC[C@H]12 [T37]	351
Cc1cc(-c2nc(-c3ccc(F)cc3)c3c(n2)[C@]2(C)C=C(C#N)C(=O)[C@H](C)[C@H]2CC3)ccn1 [T50]	256
Cc1cc(-c2nc(-c3ccccc3F)c3c(n2)[C@]2(C)C=C(C#N)C(=O)[C@H](C)[C@H]2CC3)ccn1 [T51]	364
Cc1cnccc1-c1nc(-c2ccccc2F)c2c(n1)[C@]1(C)C=C(C#N)C(=O)[C@H](C)[C@H]1CC2 [T56]	193
C[C@H]1C(=O)C(C#N)=C[C@@]2(C)c3nc(-c4ccc5ncccc5c4)nc(-c4ccccc4F)c3CC[C@H]12 [T60]	380
C[C@H]1C(=O)C(C#N)=C[C@@]2(C)c3nc(-c4cn(C)c5ncccc45)nc(-c4ccccc4F)c3CC[C@H]12 [T72]	374
C[C@H]1C(=O)C(C#N)=C[C@@]2(C)c3nc(-c4ccccc4F)nc(-c4ccccc4F)c3CC[C@H]12 [T81]	705
C[C@H]1C(=O)C(C#N)=C[C@@]2(C)c3nc(-c4ccnc(CO)c4)nc(-c4ccccc4F)c3CC[C@H]12 [T82]	480
C[C@H]1C(=O)C(C#N)=C[C@@]2(C)c3nc(-c4ccnc(CF)c4)nc(-c4ccccc4F)c3CC[C@H]12 [T83]	484
Cc1ccc(-c2nc(-c3ccccc3F)c3c(n2)[C@]2(C)C=C(C#N)C(=O)[C@H](C)[C@H]2CC3)cn1 [T88]	177
C[C@H]1C(=O)C(C#N)=C[C@@]2(C)c3nc(N4CCN(C)CC4)nc(-c4ccccc4F)c3CC[C@H]12 [T91]	552
C[C@H]1C(=O)C(C#N)=C[C@@]2(C)c3nc(N4CCOCC4)nc(-c4ccccc4F)c3CC[C@H]12 [T92]	491
CC1(C)C(=O)C(C#N)=C[C@@]2(C)c3nc(-c4ccnc5ccccc45)nc(-c4ccccc4F)c3CC[C@H]12 [T118]	395
CC1=C2CCc3c(-c4ccccc4F)nc(-c4ccnc5c(F)cccc45)nc3[C@]2(C)C=C(C#N)C1=O [T128]	1385
C[C@H]1C(=O)[C@@]2(C#N)O[C@H]2[C@@]2(C)c3nc(-c4ccnc5cc(F)ccc45)nc(-c4ccccc4F)c3CC[C@H]12 [T129]	697
C[C@H]1C(=O)[C@@]2(C#N)O[C@H]2[C@@]2(C)c3nc(-c4ccnc(C5CC5)c4)nc(-c4ccccc4F)c3CC[C@H]12 [T130]	692
CC1(C)C(=O)[C@@]2(C#N)O[C@H]2[C@@]2(C)c3nc(-c4ccnc5ccccc45)nc(-c4ccccc4F)c3CC[C@H]12 [T133]	1199
COc1nc(-c2ccncc2)nc2c1CC[C@@H]1[C@@H](C)C(=O)C=C[C@@]21C [T134]	3137
COC(=O)[C@@]1(C)C(=O)C=C[C@@]2(C)c3nc(-c4ccncc4)nc(OC)c3CC[C@H]12 [T135]	>2000
CC(=O)N1CCN(c2nc(-c3ccccc3F)c3c(n2)[C@]2(C)C=C(C#N)C(=O)[C@H](C)[C@H]2CC3)CC1 [T139]	222
C=CC[C@H]1C(=O)C(C#N)=C[C@@]2(C)c3nc(-c4ccnc(C5CC5)c4)nc(-c4ccccc4F)c3CC[C@H]12 [T145]	337
CCC[C@H]1C(=O)C(C#N)=C[C@@]2(C)c3nc(-c4ccnc(C5CC5)c4)nc(-c4ccccc4F)c3CC[C@H]12 [T146]	447
